Reference: patent publication US9925192B2, “Method for treating cancer” (Merck Sharp & Dohme Corp., priority 2014, dated 2018)

Columns and labels:
Su-DHL-4 DLBCL cells = assay: In vitro cell viability (Cell Titer Glo), 8 hours of compound treatment; assay type: cell-based; conditions: Homo sapiens, read-out: % Viability Remaining (8 hr), mean
Procedure: (§1) All cell lines were grown in exponential growth phase.

H128 SCLC cells = assay: as above; assay type: cell-based; conditions: Homo sapiens, read-out: % Viability Remaining (8 hr), mean
Procedure: as §1

Su-DHL-8 DLBCL cells = assay: as above; assay type: cell-based; conditions: Homo sapiens, read-out: % Viability Remaining (8 hr), mean
Procedure: as §1

H82 SCLC cells = assay: as above; assay type: cell-based; conditions: Homo sapiens, read-out: % Viability Remaining (8 hr), mean
Procedure: as §1

H146 SCLC cells = assay: as above; assay type: cell-based; conditions: Homo sapiens, read-out: % Viability Remaining (8 hr), mean
Procedure: as §1

[1] = test system: TOLEDO human Diffuse Large B-Cell Lymphoma (DLBCL) xenograft; assay: Toledo human DLBCL xenograft model; conditions: dinaciclib 40 mg/kg ip q4d, ABT-199 100 mg/kg po qd, alone or combined
Procedure: Eight week old female SCID beige mice (Fox Chase SCID® Beige) with body weights ranging from 18.0 to 22 grams were used for this study. Toledo tumor cells were grown to mid-log phase in RPMI-1640 medium containing 10% fetal bovine serum, 100 units/mL penicillin G, 100 μg/mL streptomycin sulfate, and 10 mM sodium pyruvate. The cells were cultured in tissue culture flasks in a humidified incubator at 37° C., in an atmosphere of 5% CO2 and 95% air. Mice were implanted subcutaneously in the right flank with 5×10e^6 tumor cells in 50% matrigel in a total volume of 0.1 ml. Twenty-eight days after inoculation, mice were randomized into groups when tumors reached an average tumor volume of ˜160 mm^3.
Dinaciclib, formulated in 20% hydroxypropyl beta-cyclodextrin (HPBCD), was dosed at 40 mg/kg intraperitoneal (ip) every four days (q4d). […] Both test agents were administered at 10 ml/kg.
Tumor volume (TV) was measured twice a week using calipers. Tumor volume was calculated by the elliptical formula: Tumor Volume=width2×length/2. Body weight was measured at least twice weekly. […] Statistical Analysis of Tumor Growth Inhibition (TGI) was analyzed by one-way ANOVA followed by Tukey's multiple comparison test.

[2] = test system: NCI-H82 human Small Cell Lung Cancer (SCLC) xenograft; assay: NCI-H82 human Small Cell Lung Cancer xenograft model; assay type: in vivo, mouse; conditions: dinaciclib 40 mg/kg ip q4d, ABT-199 100 mg/kg po qd
Procedure: (§2) The cells were cultured in tissue culture flasks in a humidified incubator at 37° C., in an atmosphere of 5% CO2 and 95% air.
(§3) Body weight was measured at least twice weekly.

[3] = test system: SUDHL4 human Diffuse Large B-Cell Lymphoma (DLBCL) xenograft; assay type: in vivo; conditions: dinaciclib 40 mg/kg ip q4d, ABT-199 100 mg/kg po qd, dosing for eleven days, combination measured on day 18
Procedure: as §2, §3

CCc1cnn2c(NCc3ccc[n+]([O-])c3)cc(N3CCCC[C@H]3CCO)nc12 [dinaciclib, (S)-(−)-2-(1-{3-ethyl-7-[(1-oxy-pyridin-3-ylmethyl)amino]pyrazolo[1,5-a]pyrimidin-5-yl}piperidin-2-yl)ethanol]
viability at 0.1 µM (Su-DHL-4 DLBCL cells; Su-DHL-4 DLBCL, dinaciclib 0.1 uM, 8 hr): 53.5% | viability at 0.1 µM (H128 SCLC cells; NCI-H128, H128 SCLC, dinaciclib 0.1 uM, 8 hr): 114% | viability at 0.1 µM (Su-DHL-8 DLBCL cells; Su-DHL-8 DLBCL, dinaciclib 0.1 uM, 8 hr): 126% | viability at 0.1 µM (H82 SCLC cells; H82 SCLC, dinaciclib 0.1 uM, 8 hr): 64.7% | viability at 0.1 µM (H146 SCLC cells; NCI-H146, H146 SCLC, dinaciclib 0.1 uM, 8 hr): 118%

CC1(C)CCC(CN2CCN(c3ccc(C(=O)NS(=O)(=O)c4ccc(NCC5CCOCC5)c([N+](=O)[O-])c4)c(Oc4cnc5[nH]ccc5c4)c3)CC2)=C(c2ccc(Cl)cc2)C1 [ABT-199, 4-(4-{[2-(4-chlorophenyl)-4,4-dimethylcyclohex-1-en-1-yl]methyl}piperazin-1-yl)-N-({3-nitro-4-[(tetrahydro-2H-pyran-4-ylmethyl)amino]phenyl}sulfonyl)-2-(1H-pyrrolo[2,3-b]pyridin-5-yloxy)benzamide]
Anti-tumor effect (tumor volume) [1]: provided anti-tumor effects | Effect on tumor growth (single agents) [2]: no effect on tumor growth | viability at 1 µM (Su-DHL-4 DLBCL cells; SU-DHL-4, 8 h): 85.4% | viability at 1 µM (H128 SCLC cells; NCI-H128, 8 h): 95.4% | viability at 1 µM (Su-DHL-8 DLBCL cells; SU-DHL-8, 8 h): 99.4% | viability at 1 µM (H82 SCLC cells; 8 h): 111% | viability at 1 µM (H146 SCLC cells; NCI-H146, 8 h): 92.6% | Anti-tumor effect (tumor volume) [3]: single agent activity
